Data taken from patent US11306080B2, “Crystalline form of a BACE inhibitor, compositions, and use” (Merck Sharp & Dohme Corp., priority 2017, dated 2022).
“Also recorded” adds a separate entry of the source.

How the values were obtained:
Type in all cases: physicochemical
[1] = 4 week open dish accelerated chemical stability of 12 mg tablets, analyzed using HPLC; conditions: 40° C./75% RH
Method: To assess the chemical stability of Crystalline Form II of verubecestat in the tablet formulation, a 4 week open dish accelerated stability experiment was performed at a controlled temperature and humidity. Identical measurements were made to Crystalline Form I of verubecestat, which Form I is described in WO2016025364 for comparison. […] At the end of two weeks and of four weeks, tablets were analyzed using HPLC. The data obtained are reported in the following table, where “Hyd1” and “Hyd2” indicate observed degradation product: […]

[2] = BCS (Biopharmaceutics Classification System) designation; conditions: listed as Crystalline Form II of Verubecestat
[3] = Thermodynamic stability by competitive slurry experiments in various solvent systems, resultant form by PXRD; conditions: slurried in various solvents for an extended period of time at a controlled temperature
Method: The thermodynamic stability of Crystalline Form II of Verubecestat was assessed using competitive slurry experiments in various solvent systems. Crystalline Form I of Verubecestat, obtained using the procedures set out in WO2016025364, and Crystalline Form II of verubecestat material obtained as described above were slurried in various solvents for an extended period of time and at a controlled temperature. At the end of the experiments, the solvent was removed and the remaining crystalline material were evaluated using Powder X-ray Diffraction (PXRD) to confirm the resultant form.

| Assay (% LC) ([1]; 2 weeks) | Assay (% LC) ([1]; 4 weeks) | Assay (% LC) ([1]; time point 0) | Degradation Product (%) Hyd1 ([1]; time point 0) | Degradation Product (%) Hyd2 ([1]; time point 0) | Degradation Product (%) Total ([1]; time point 0) | BCS class [2] | Form remaining after competitive slurry of Form I and Form II (thermodynamic stability) [3] | Structure (SMILES) |
| --- | --- | --- | --- | --- | --- | --- | --- | --- |
| 98.5 % LC | 97.4 % LC | 98.5 % LC | — (“—”means not more than 0.05%) | — (“—”means not more than 0.05%) | — (“—”means not more than 0.05%) |  |  | CN1C(=N)N[C@](C)(c2cc(NC(=O)c3ccc(F)cn3)ccc2F)CS1(=O)=O [Crystalline Form I, verubecestat, reference compound] |
| 104.6 % LC | 102.4 % LC | 104.3 % LC | — (“—”means not more than 0.05%) | — (“—”means not more than 0.05%) | — (“—”means not more than 0.05%) | Class I; also recorded: Class 1 | the only form remaining | CN1C(N)=N[C@](C)(c2cc(NC(=O)c3ccc(F)cn3)ccc2F)CS1(=O)=O [Crystalline Form II, N-[3-[(5R)-3-amino-5,6-dihydro-2,5-dimethyl-1,1-dioxido-2H-1,2,4-thiadiazin-5-yl]-4-fluorophenyl]-5-fluoro-2-pyridinecarboxamide] |
